Measured values taken from US20210261512A1, “NOVEL COMPOUNDS” (INFLAZOME LIMITED, priority 2018, published 2021).

Legend:
[1] = target: T1, NLRP3 (Homo sapiens, UniProt Q96P20); assay: Human whole blood IL1β release assay; format: cell-based; conditions: LPS 1 μg/ml, nigericin 10 μM, IL-1β AlphaLisa, 10 μM top dose (Example 2: top dose of 30 μM), read-out: HWB IC50
Outline: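 Healthy-donor heparinised human whole blood with 1 μg/ml LPS, compound (8-point half-log dilution, 10 μM top dose unless stated; 0.1% DMSO vehicle) for 3 h at 37 °C, then nigericin 10 μM final for 1 h. Supernatant IL-1β by AlphaLISA; IC50 from 4-parameter variable-slope fit.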

[2] = target: T1, NLRP3; assay: THP-1 cells pyroptosis assay; format: cell-based; design: Seed THP-1 cells (25,000 cells/well) containing 1.0 μg/ml LPS; host or cells: THP-1; conditions: LPS 1.0 μg/ml, nigericin 5 μM, resazurin readout, 10 μM top dose (Example 2: top dose of 30 μM)
Outline: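 THP-1 cells (25,000/well) primed with 1 μg/ml LPS in serum-free RPMI, treated with compound (8-point dilution, 10 μM top unless stated; 0.1% DMSO) 3 h at 37°C, then nigericin 5 μM 1 h. Viability read by resazurin (100 μM, 1-2 h) fluorescence; IC50 from 4-parameter fit.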

T1 sequence (Q96P20 whole entry): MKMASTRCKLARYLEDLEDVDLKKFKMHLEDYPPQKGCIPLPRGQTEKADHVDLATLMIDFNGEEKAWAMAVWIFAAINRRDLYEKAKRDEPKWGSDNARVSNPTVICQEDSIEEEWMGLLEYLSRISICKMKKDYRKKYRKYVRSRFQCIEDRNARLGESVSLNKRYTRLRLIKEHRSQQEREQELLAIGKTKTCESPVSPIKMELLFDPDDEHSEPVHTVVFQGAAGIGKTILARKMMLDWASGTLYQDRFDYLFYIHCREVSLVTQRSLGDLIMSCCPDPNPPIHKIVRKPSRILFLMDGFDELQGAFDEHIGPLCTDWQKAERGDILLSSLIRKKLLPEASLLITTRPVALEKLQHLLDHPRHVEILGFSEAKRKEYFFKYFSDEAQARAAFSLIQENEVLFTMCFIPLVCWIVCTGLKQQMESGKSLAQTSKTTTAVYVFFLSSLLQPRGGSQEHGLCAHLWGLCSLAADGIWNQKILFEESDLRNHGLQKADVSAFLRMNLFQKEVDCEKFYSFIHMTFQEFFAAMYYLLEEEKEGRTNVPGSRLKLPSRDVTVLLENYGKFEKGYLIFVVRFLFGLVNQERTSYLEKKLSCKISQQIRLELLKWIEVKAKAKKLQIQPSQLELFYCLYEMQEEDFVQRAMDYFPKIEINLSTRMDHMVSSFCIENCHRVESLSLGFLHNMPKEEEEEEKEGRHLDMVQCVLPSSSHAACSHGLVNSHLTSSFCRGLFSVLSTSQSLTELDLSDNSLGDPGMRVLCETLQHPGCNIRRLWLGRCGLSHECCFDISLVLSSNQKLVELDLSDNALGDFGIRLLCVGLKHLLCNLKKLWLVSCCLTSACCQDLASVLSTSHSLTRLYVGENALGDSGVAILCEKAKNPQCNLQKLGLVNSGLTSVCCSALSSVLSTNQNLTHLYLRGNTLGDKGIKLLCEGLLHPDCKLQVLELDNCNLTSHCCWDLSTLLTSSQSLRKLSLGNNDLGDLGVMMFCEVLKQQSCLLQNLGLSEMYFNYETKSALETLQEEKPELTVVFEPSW

SMILES	IC50 [1]	IC50 [2]
CC(C)c1cnn(-c2ccncc2)c1Nc1nnc(S(=O)(=O)N2CCC(N(C)C)CC2)[nH]1 [Example 197, 1-((5-((4-isopropyl-1-(pyridin-4-yl)-1H-pyrazol-5-yl)amino)-4H-1,2,4-triazol-3-yl)sulfonyl)-N,N-dimethylpiperidin-4-amine]	≤ 500 nM	≤ 500 nM
CN(C)C1CCN(S(=O)(=O)c2nnc(Nc3c(-c4ccnc(C5CC5)c4)ccc4c3CCC4)[nH]2)CC1 [Example 199, 1-((5-((5-(2-cyclopropylpyridin-4-yl)-2,3-dihydro-1H-inden-4-yl)amino)-4H-1,2,4-triazol-3-yl)sulfonyl)-N,N-dimethylpiperidin-4-amine]	≤ 5000 nM	≤ 500 nM
CN1CCC12CCN(S(=O)(=O)c1nnc(Nc3c(-c4ccnc(OC(F)F)c4)ccc4c3CCC4)[nH]1)CC2 [Example 200, N-(5-(2-(difluoromethoxy)pyridin-4-yl)-2,3-dihydro-1H-inden-4-yl)-5-((1-methyl-1,7-diazaspiro[3.5]nonan-7-yl)sulfonyl)-4H-1,2,4-triazol-3-amine]	≤ 5000 nM	≤ 500 nM
CN1CCCC12CCN(S(=O)(=O)c1nnc(Nc3c(-c4ccnc(OC(F)F)c4)ccc4c3CCC4)[nH]1)CC2 [Example 201, N-(5-(2-(difluoromethoxy)pyridin-4-yl)-2,3-dihydro-1H-inden-4-yl)-5-((1-methyl-1,8-diazaspiro[4.5]decan-8-yl)sulfonyl)-4H-1,2,4-triazol-3-amine]	≤ 500 nM	≤ 500 nM
CN1CCC12CCN(S(=O)(=O)c1nnc(Nc3c(-c4ccnc(OC(F)F)c4)ccc4c3CCO4)[nH]1)CC2 [Example 202, N-(5-(2-(difluoromethoxy)pyridin-4-yl)-2,3-dihydrobenzofuran-4-yl)-5-((1-methyl-1,7-diazaspiro[3.5]nonan-7-yl)sulfonyl)-4H-1,2,4-triazol-3-amine]	≤ 1000 nM	≤ 500 nM
COc1cc(-c2ccc3c(c2Nc2nnc(S(=O)(=O)N4CCC5(CCN5C)CC4)[nH]2)CCO3)ccn1 [Example 203, N-(5-(2-methoxypyridin-4-yl)-2,3-dihydrobenzofuran-4-yl)-5-((1-methyl-1,7-diazaspiro[3.5]nonan-7-yl)sulfonyl)-4H-1,2,4-triazol-3-amine]	≤ 5000 nM	≤ 500 nM
COc1cc(-c2ccc3c(c2Nc2nnc(S(=O)(=O)N4CCC5(CCN5C)CC4)[nH]2)CCC3)ccn1 [Example 204, N-(5-(2-methoxypyridin-4-yl)-2,3-dihydro-1H-inden-4-yl)-5-((1-methyl-1,7-diazaspiro[3.5]nonan-7-yl)sulfonyl)-4H-1,2,4-triazol-3-amine]	≤ 1000 nM	≤ 500 nM
CN1CCCC12CCN(S(=O)(=O)c1nnc(Nc3c(-c4ccnc(OC(F)F)c4)ccc4c3CCO4)[nH]1)CC2 [Example 210, N-(5-(2-(difluoromethoxy)pyridin-4-yl)-2,3-dihydrobenzofuran-4-yl)-5-((1-methyl-1,8-diazaspiro[4.5]decan-8-yl)sulfonyl)-4H-1,2,4-triazol-3-amine]	≤ 5000 nM	≤ 500 nM
COc1cc(-c2ccc3c(c2Nc2nnc(S(=O)(=O)N4CCC5(CCCN5C)CC4)[nH]2)CCO3)ccn1 [Example 211, N-(5-(2-methoxypyridin-4-yl)-2,3-dihydrobenzofuran-4-yl)-5-((1-methyl-1,8-diazaspiro[4.5]decan-8-yl)sulfonyl)-4H-1,2,4-triazol-3-amine]	≤ 5000 nM	≤ 500 nM
Cc1cc(-c2ccc3c(c2Nc2nnc(S(=O)(=O)N4CCC(N(C)C)CC4)[nH]2)CCO3)ccn1 [Example 217, N,N-dimethyl-1-((5-((5-(2-methylpyridin-4-yl)-2,3-dihydrobenzofuran-4-yl)amino)-4H-1,2,4-triazol-3-yl)sulfonyl)piperidin-4-amine]	≤ 10000 nM	≤ 5000 nM
[2H]C([2H])([2H])Oc1cc(-c2ccc3c(c2Nc2nnc(S(=O)(=O)N4CCC(N(C)C)CC4)[nH]2)CCO3)ccn1 [Example 218, 1-((5-((5-(2-(methoxy-d)pyridin-4-yl)-2,3-dihydrobenzofuran-4-yl)amino)-4H-1,2,4-triazol-3-yl)sulfonyl)-N,N-dimethylpiperidin-4-amine]	≤ 500 nM	≤ 500 nM
CN(C)C1CCN(S(=O)(=O)c2nnc(Nc3c(-c4ccncc4)ccc4c3CCC4)[nH]2)CC1 [Example 219, N,N-dimethyl-1-((5-((5-(pyridin-4-yl)-2,3-dihydro-1H-inden-4-yl)amino)-4H-1,2,4-triazol-3-yl)sulfonyl)piperidin-4-amine]	≤ 1000 nM	≤ 500 nM
CN(C)C1CCN(S(=O)(=O)c2nnc(Nc3c(-c4ccncc4)ccc4c3CCO4)[nH]2)CC1 [Example 220, N,N-dimethyl-1-((5-((5-(pyridin-4-yl)-2,3-dihydrobenzofuran-4-yl)amino)-4H-1,2,4-triazol-3-yl)sulfonyl)piperidin-4-amine]	≤ 5000 nM	≤ 1000 nM
Cc1cc(-c2ccc3c(c2Nc2nnc(S(=O)(=O)N4CCC(N(C)C)CC4)[nH]2)CCC3)ccn1 [Example 221, N,N-dimethyl-1-((5-((5-(2-methylpyridin-4-yl)-2,3-dihydro-1H-inden-4-yl)amino)-4H-1,2,4-triazol-3-yl)sulfonyl)piperidin-4-amine]	≤ 5000 nM	≤ 500 nM
CN(C)C1CCN(S(=O)(=O)c2nnc(Nc3c(-c4ccnc(OC(F)F)c4)ccc4c3CCC4)[nH]2)CC1 [Example 222, 1-((5-((5-(2-(difluoromethoxy)pyridin-4-yl)-2,3-dihydro-1H-inden-4-yl)amino)-4H-1,2,4-triazol-3-yl)sulfonyl)-N,N-dimethylpiperidin-4-amine]	≤ 1000 nM	≤ 500 nM
CN(C)C1CCN(S(=O)(=O)c2nnc(Nc3c4c(c(F)c5c3CCC5)CCC4)[nH]2)CC1 [Example 224, 1-((5-((8-fluoro-1,2,3,5,6,7-hexahydro-s-indacen-4-yl)amino)-4H-1,2,4-triazol-3-yl)sulfonyl)-N,N-dimethylpiperidin-4-amine]	≤ 1000 nM	≤ 500 nM
CN(C)C1CCN(S(=O)(=O)c2nnc(Nc3c(-c4ccnc(OC(F)F)c4)ccc4c3CCO4)[nH]2)CC1 [Example 225, 1-((5-((5-(2-(difluoromethoxy)pyridin-4-yl)-2,3-dihydrobenzofuran-4-yl)amino)-4H-1,2,4-triazol-3-yl)sulfonyl)-N,N-dimethylpiperidin-4-amine]	≤ 1000 nM	≤ 500 nM
[2H]C([2H])([2H])Oc1cc(-c2ccc3c(c2Nc2nnc(S(=O)(=O)N4CCC(N(C)C)CC4)[nH]2)CCC3)ccn1 [Example 227, 1-((5-((5-(2-(methoxy-d3)pyridin-4-yl)-2,3-dihydro-1H-inden-yl)amino)-4H-1,2,4-triazol-3-yl)sulfonyl)-N,N-dimethylpiperidin-4-amine]	≤ 500 nM	≤ 500 nM
COc1cc(-c2ccc3c(c2Nc2nnc(S(=O)(=O)N4CCC(N(C)C)CC4)[nH]2)CCC3)ccn1 [Example 228, 1-((5-((5-(2-methoxypyridin-4-yl)-2,3-dihydro-1H-inden-4-yl)amino)-4H-1,2,4-triazol-3-yl)sulfonyl)-N,N-dimethylpiperidin-4-amine]	≤ 1000 nM	≤ 500 nM
CC(C)(O)[C@H]1CCN(S(=O)(=O)c2nnc(Nc3c4c(cc5c3CCC5)CCC4)[nH]2)C1 [Example 233, (S)-2-(1-((5-((1,2,3,5,6,7-hexahydro-s-indacen-4-yl)amino)-4H-1,2,4-triazol-3-yl)sulfonyl)pyrrolidin-3-yl)propan-2-ol]	≤ 5000 nM	≤ 500 nM
O=S(=O)(c1nnc(Nc2c3c(cc4c2CCC4)CCC3)[nH]1)N1CC2(CCN(CCF)C2)C1 [Example 239, 5-((6-(2-fluoroethyl)-2,6-diazaspiro[3.4]octan-2-yl)sulfonyl)-N-(1,2,3,5,6,7-hexahydro-s-indacen-4-yl)-4H-1,2,4-triazol-3-amine]	≤ 5000 nM	≤ 1000 nM
CCN1CCC2(C1)CN(S(=O)(=O)c1nnc(Nc3c4c(cc5c3CCC5)CCC4)[nH]1)C2 [Example 240, 5-((6-ethyl-2,6-diazaspiro[3.4]octan-2-yl)sulfonyl)-N-(1,2,3,5,6,7-hexahydro-s-indacen-4-yl)-4H-1,2,4-triazol-3-amine]	≤ 500 nM	≤ 500 nM
CC(C)c1cc(F)cc(C(C)C)c1Nc1nc(S(=O)(=O)N2CCC(CN(C)C)C2)n[nH]1 (centres unmarked) [Example 241, 3-((3-((dimethylamino)methyl)pyrrolidin-1-yl)sulfonyl)-N-(4-fluoro-2,6-diisopropylphenyl)-1H-1,2,4-triazol-5-amine]	≤ 1000 nM	≤ 500 nM
CC(C)c1cc(F)cc(C(C)C)c1Nc1nnc(S(=O)(=O)N2CC3(CCN(C)C3)C2)[nH]1 [Example 242, N-(4-fluoro-2,6-diisopropylphenyl)-5-((6-methyl-2,6-diazaspiro[3.4]octan-2-yl)sulfonyl)-4H-1,2,4-triazol-3-amine]	≤ 500 nM	≤ 500 nM
O=S(=O)(c1nnc(Nc2c3c(cc4c2CCC4)CCC3)[nH]1)N1CCC2(CCCN2C2CC2)CC1 [Example 246, 5-((1-cyclopropyl-1,8-diazaspiro[4.5]decan-8-yl)sulfonyl)-N-(1,2,3,5,6,7-hexahydro-s-indacen-4-yl)-4H-1,2,4-triazol-3-amine]	≤ 5000 nM	≤ 1000 nM
